Source: patent US20100069502A1, “Assay” (priority 2006, published 2010)

Columns and labels:
Format in all cases: cell-based
[1] = tested on: PPM phosphatase; experiment: Mg2+ dependent, okadaic acid resistant casein phosphatase (PPM phosphatase) activity in HeLa cell lysates; settings: HeLa cells, 2 mM metformin
Protocol: (§1) A PPM phosphatase activity in treated and untreated HEK293 cell lysates using casein as substrate in the presence of 10 mM MgAc and 5 μM okadaic acid. Data are mean±SEM with five independent samples measured in duplicate. (p<0.001). B PPM phosphatase activity in treated and untreated HeLa cell lysates using casein as substrate in the presence of 10 mM MgAc and 5 μM okadaic acid. Data are mean±SEM with four independent samples measured in duplicate. (p<0.001).
(§2) The activity of PP2C (PPM1) and related members of the PPM family was assessed using ^32P-labelled casein as substrate with 5 μM okadaic acid included in the reaction to inhibit PP2A, and 10 mM magnesium acetate, which is known to be required for the activity of PP2C (Ingebritsen and Cohen, 1983 Science vol 221, pp 331-338; Ingebritsen et al., 1983 Eur J Biochem vol 132, pp 263-274).
To test whether phenformin is able to have similar effects in this cell line, PPM phosphatase activity in HeLa cells either untreated or treated with 10 mM phenformin was assessed. Again, a ˜20% decrease in PPM phosphatase activity could be observed in cells treated with phenformin (FIG. 2B). In this experiment, the activity of many PP2C isoforms is measured, and the 20% decrease observed may represent a more severe decrease in activity of only one such isoform.

[2] = tested on: PPM phosphatase; experiment: Mg2+ dependent, okadaic acid resistant casein phosphatase (PPM phosphatase) activity in HEK293 cell lysates; settings: HEK293 cells, 2 mM metformin
Protocol: as §1
(§3) To study the effects of biguanide on the activity of protein phosphatases, HEK293 cell lysates either untreated or treated with biguanide (10 mM phenformin in this example—as described above) were either immunoblotted or assayed for specific protein phosphatase activity by using combinations of phosphatase inhibitors and activators, as well as different phosphorylated substrates.
as §2

[3] = target: T1, PPM1E (Homo sapiens, UniProt Q8WY54); experiment: Activity of PPM phosphatase immunoprecipitated from HEK293 cell lysates, casein substrate; settings: HEK293 cells, 2 mM metformin for 10 minutes prior to lysis
T1 construct: The PPM1A1 and PPM1E isoforms were immunoprecipitated in triplicate from untreated or metformin-treated HEK293 cell lysates; endogenous in cells; host or cells: HEK293
T1 sequence (Q8WY54 1-755): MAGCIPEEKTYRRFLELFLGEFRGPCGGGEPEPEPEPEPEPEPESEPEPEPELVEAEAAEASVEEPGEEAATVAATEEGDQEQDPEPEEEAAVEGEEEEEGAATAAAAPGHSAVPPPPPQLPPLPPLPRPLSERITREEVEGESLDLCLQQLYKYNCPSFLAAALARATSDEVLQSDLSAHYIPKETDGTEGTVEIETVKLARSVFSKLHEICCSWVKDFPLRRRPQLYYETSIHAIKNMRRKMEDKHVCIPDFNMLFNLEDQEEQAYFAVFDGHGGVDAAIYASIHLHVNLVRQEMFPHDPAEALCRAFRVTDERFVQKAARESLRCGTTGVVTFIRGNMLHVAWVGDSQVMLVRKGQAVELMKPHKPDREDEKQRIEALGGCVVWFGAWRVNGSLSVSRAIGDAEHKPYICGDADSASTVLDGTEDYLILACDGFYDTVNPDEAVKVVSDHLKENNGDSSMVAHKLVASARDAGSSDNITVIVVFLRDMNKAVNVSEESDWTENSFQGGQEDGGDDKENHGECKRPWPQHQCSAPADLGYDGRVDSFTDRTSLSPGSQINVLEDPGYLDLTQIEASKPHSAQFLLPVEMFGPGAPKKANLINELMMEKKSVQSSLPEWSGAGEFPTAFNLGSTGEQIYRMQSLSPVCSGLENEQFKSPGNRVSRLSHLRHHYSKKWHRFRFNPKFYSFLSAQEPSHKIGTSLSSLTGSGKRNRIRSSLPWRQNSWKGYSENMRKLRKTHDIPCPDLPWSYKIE
Protocol: PPM1E is immunopelleted with antibodies raised the amino acid sequence […] and the phosphatase activity in the immunopellet is measured in a protein phosphatase assay using 32P-labelled casein as substrate in the presence of 10 mM Mg2+ or Mn2+ ions and 5 μM okadaic acid.
(§4) PPM phosphatase activity in HEK293 cell lysates either untreated or treated with 10 mM phenformin for 1 hour. Individual isoforms were immunoprecipitated from control or phenformin-treated cell lysates and activity measured using ^32P labelled casein as substrate in the presence of 10 mM MgAc and […] acid. Data are mean activities for assays performed in triplicate.
(§5) To determine with greater certainty which PPM phosphatases are affected by biguanide, the PPM phosphatase activity associated with each of the PPM enzymes was assessed. […] No change could be detected in the PPM phosphatases associated with PPM1A1, PPM1B1, PPM1B2, PPM1D, PPM1G, ILKAP, Nerpp, PDPC1 or PDPC2. […] Following immunoprecipitation and immunoblotting of the PPM1E immunoprecipitate from untreated HEK293 cells, no signal could be detected using an antibody directed against PPM1E.
HEK293 cells were treated with 2 mM metformin for 10 minutes prior to lysis. […] Control immunoprecipitations were preformed in triplicate for each lysate using pre-immune antibody and subtracted from the activity calculated for the PPM phosphatase immunoprecipitations. […]

[4] = tested on: PP2A; experiment: PP2A phosphorylase phosphatase activity in HEK293 cell lysates; settings: 10 mM phenformin, 32P labelled phosphorylase a, 200 nM I-2
Protocol: (§6) A Levels of phosphorylation of AMPK at Thr172 in 4 untreated and 4 treated samples. Anti-PP5 TPR domain antibody is used as a loading control. Molecular weights (kDa) are indicated to the left of the panels. B PP1 phosphorylase phosphatase activity in treated and untreated HEK293 cell lysates using phosphorylase a as substrate, in the presence of 4 nM okadaic acid. Data are mean±SEM for four samples measured in triplicate. C PP2A phosphorylase phosphatase activity in treated and untreated HEK293 cell lysates using phosphorylase a as substrate, in the presence of 200 nM I-2. Data are mean±SEM for four samples measured in triplicate. […]
The activity of PP2A in response to phenformin was also assessed using ^32P labelled phosphorylase a as substrate, but for this assay 200 nM I-2 and EGTA (0.1-2 mM) to inhibit metal ion activated protein phosphatases was included to inhibit PP1. No change in the PP2A phosphorylase phosphatase activity could be detected between unstimulated and 10 mM-phenformin stimulated cell lysates (FIG. 1C).

[5] = target: T2, PPM1F (Homo sapiens, UniProt P49593); experiment: Activity of PPM phosphatase immunoprecipitated from HEK293 cell lysates, casein substrate
T2 construct: endogenous in cells; host or cells: HEK293
T2 sequence (P49593 1-454): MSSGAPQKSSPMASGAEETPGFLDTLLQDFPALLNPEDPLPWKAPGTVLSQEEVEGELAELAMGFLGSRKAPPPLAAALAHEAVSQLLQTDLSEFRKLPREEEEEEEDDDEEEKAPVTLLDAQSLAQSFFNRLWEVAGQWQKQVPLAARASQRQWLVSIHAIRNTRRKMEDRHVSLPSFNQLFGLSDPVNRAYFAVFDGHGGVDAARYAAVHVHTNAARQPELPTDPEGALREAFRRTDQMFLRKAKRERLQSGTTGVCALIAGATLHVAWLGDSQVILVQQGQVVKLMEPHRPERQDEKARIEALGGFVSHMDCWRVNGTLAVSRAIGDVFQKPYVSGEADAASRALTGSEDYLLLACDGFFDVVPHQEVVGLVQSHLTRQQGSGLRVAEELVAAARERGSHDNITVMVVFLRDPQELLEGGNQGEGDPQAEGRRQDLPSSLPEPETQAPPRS
Protocol: PPM1F is immunopelleted with antibodies raised the amino acid sequence […] and the phosphatase activity in the immunopellet is measured in a protein phosphatase assay using 32P-labelled casein as substrate in the presence of 10 mM Mg2+ or Mn2+ ions and 5 μM okadaic acid.
as §4
as §5, with “assessed. In this example, the biguanides are metformin and phenformin.” for “assessed.”

[6] = tested on: PP1; experiment: PP1 phosphorylase phosphatase activity in HEK293 cell lysates; settings: 10 mM phenformin, 32P-labelled phosphorylase a, 4 mM okadaic acid
Protocol: as §6
The activity of PP1 in response to phenformin was assessed using ^32P-labelled phosphorylase a as substrate with […] okadaic acid included in the reaction in order to inhibit the activity of PP2A and EGTA (0.1-2 mM) to inhibit metal ion activated protein phosphatases. No change in PP1 phosphorylase phosphatase activity could be detected between unstimulated and 10 mM-phenformin stimulated cell lysates (FIG. 1B).

[7] = tested on: PP5; experiment: PP5 levels by immunoblotting in HEK293 cell lysates; settings: HEK293 cells, 10 mM phenformin, antibody against TPR domains
Protocol: as §3
Since the activity of PP5 in HEK293 cells is low, the levels of PP5 were assessed by immunoblotting using an antibody against the TPR domains of the protein.

## CN(C)C(=N)N=C(N)N [metformin, 1-(diaminomethylidene)-3,3-dimethyl-guanidine]
[1]
  decrease in PPM phosphatase activity: 20%
[2]
  decrease in PPM phosphatase activity: 20%
[3]
  activity of immunoprecipitated PPM1E: almost completely ablated
[3]; listed as Metformin
  activity of immunoprecipitated PPM1E: Substantial specific knockdown

## [H]/N=C(/N)N/C(=N/[H])NCCc1ccccc1 [phenformin, phenylethylbiguanide]
[4]
  PP2A phosphorylase phosphatase activity: no effect
[5]; HEK293 cells treated with phenformin
  activity of immunoprecipitated PPM1F, % of the levels of untreated cells: ~60%
[5]; HEK293 cells, 10 mM phenformin
  decrease in activity of immunoprecipitated PPM1F: ~40%
[6]
  PP1 phosphorylase phosphatase activity: no effect
[7]
  levels of PP5: no effect
